Measured values reported in patent publication US6916461B2, “Metal complexes that contain perfluoroalkyl, process for their production and their use in NMR diagnosis” (Schering AG, priority 1996, dated 2005).
Where two headings read alike, the source gives them in different places.

Assays:
[1] = rat, in vivo, iv; cited from earlier work
[2] = T1-relaxivity with Minispec pc 20 (20 MHz, 0.47T) at 37° C. in water and human plasma; assay type: physicochemical; details: for R^1 [L/mmol * sec] at 0.47 T and 37° C. Plasma / R^1 [L/mmol * sec] at 0.47 T and 37° C. Water: T1-relaxivity, Minispec pc 20 (20 MHz, 0.47 T); for R^1 [L/mmol * sec] at 0.47 T and 37° C. Plasma: in human plasma; for R^1 [L/mmol * sec] at 0.47 T and 37° C. Water: in water; for T1-relaxivity: 20 MHz
Procedure: The relaxivity of the following compounds was determined with a Minispec pc 20 (20 MHz, 0.47T) at 37° C. in water and human plasma and compared to that of Gd-DTPA-polylysine and Magnevist^(R) as comparison substances.

[3] = T1-relaxivity, from Invest. Radiol. 1992, 346, cited from earlier work
[4] = Blood elimination kinetics of contrast media in rats after one-time intravenous administration; assay type: in vivo, rats (Han Wistar, Schering SPF); details: for distribution volume Vss, MEAN / elimination half-life Tβ, MEAN / total clearance CLtot, MEAN: one-time i.v., Dy-DTPA 100 μmol Dy/kg (n=3), Example 1c 50 μmol Gd/kg (n=2), TOPFIT 2.0
Procedure: The blood elimination kinetics of contrast media was examined in rats (Han Wistar, Schering SPF, ≈250 g of body weight). For this purpose, after one-time intravenous administration (via a caudal vein) of the substances (dose: 50-100 μmol of Me per kg of body weight), the substance concentration in the blood (based on the Gd or Dy content) was determined over a period of up to 300 minutes p.i. with the aid of ICP-AES. The pharmacokinetic parameters: distribution volume (Vss), total clearance (CLtot) and elimination half-life (tβ) were calculated with a special computer program (TOPFIT 2.0; Thomae, Schering, Gödecke), whereby a one- or two-compartment distribution model was used as a basis.
FIG. 1 represents elimination from the blood (in % of the injected dose) of Dy-DTPA (dose: 100 μmol of Dy per kg of body weight, n=3) and of the fluorine compounds of Example 1c according to the invention (dose: 50 μmol of Gd per kg of body weight, n=2) after one-time intravenous administration of substances in rats (Han Wistar, Schering SPF, ≈250 g of body weight).
The Gd and Dy contents in the blood were determined with the aid of ICP-AES.

[5] = Elimination of the contrast medium after i.p. administration (retention of metal in liver and remainder of the body); assay type: in vivo; details: rats, i.p. 100 μmol of total gadolinium/kg, 14 days p.i.
Excerpt: After administration of a perfluorinated gadolinium complex according to the invention (100 μmol of total gadolinium/kg of body weight) in the intraperitoneal space of rats, the retention of metal in the liver as well as in the remainder of the body was examined 14 days after administration. In this test, fluorine-containing compound 2c) was used. After 14 days p.i., the gadolinium concentration was 0.22% of the administered dose in the liver and 1.1% of the administered dose in the remainder of the body.

[6] = Lymph node visualization (MRT) after interstitial administration of the contrast medium; assay type: in vivo; details: guinea pigs, 120 minutes after s.c. 10 μmol of Gd/kg, T1-weighted spin echo (TR 400 ms, TE 15 ms)
Procedure: It was possible to confirm the special suitability of the compounds according to the invention in MR imaging studies in guinea pigs. Thus, 120 minutes after subcutaneous administration of 10 μmol/kg of body weight of a perfluorine-containing gadolinium complex (guinea pigs, hind paw, interdigital space) in T^1-weighted spin-echo images (TR 400 ms, TE 15 ms), a clear enhancement of the popliteal lymph nodes (270%) as well as the inguinal lymph nodes (104%) was observed (cf. Image 1).

Compound	R^1 [L/mmol * sec] at 0.47 T and 37° C. Plasma [2] [L/mmol/s]	R^1 [L/mmol * sec] at 0.47 T and 37° C. Water [2] [L/mmol/s]	T1-relaxivity ([2]; human plasma) [L/mmol/s]	T1-relaxivity ([2]; water) [L/mmol/s]	also measured
albumin-Gd-DTPA	–	–	–	–	concentration in the liver tissue [1]: ~30 % of the dose
CNC[C@H](O)[C@@H](O)[C@H](O)[C@H](O)CO.CNC[C@H](O)[C@@H](O)[C@H](O)[C@H](O)CO.O=C([O-])CN(CCN(CC(=O)[O-])CC(=O)O)CCN(CC(=O)[O-])CC(=O)O.[Gd+3] [Magnevist, reference compound]	4.8	3.8	–	–	–
polylysine-Gd-DTPA	–	–	–	–	R^1 [L/mmol * sec] at 0.47 T and 37° C. Plasma ([3]; in plasma): 16.8 L/mmol/s; R^1 [L/mmol * sec] at 0.47 T and 37° C. Water ([3]; in water): 13.1 L/mmol/s
O=C([O-])CN(CCN(CC(=O)[O-])CC(=O)[O-])CCN(CC(=O)[O-])CC(=O)[O-].[Dy+3].[Na+].[Na+] [Dy-DTPA, reference compound]	–	–	–	–	distribution volume Vss, MEAN [4]: 0.17 L/kg; elimination half-life Tβ, MEAN [4]: 14.98 min; total clearance CLtot, MEAN [4]: 9.27 mL/min/kg

Continued, in another order:

R^1 [L/mmol * sec] at 0.47 T and 37° C. Plasma [2] [L/mmol/s]	R^1 [L/mmol * sec] at 0.47 T and 37° C. Water [2] [L/mmol/s]	T1-relaxivity ([2]; human plasma) [L/mmol/s]	T1-relaxivity ([2]; water) [L/mmol/s]	Compound	also measured
–	–	4.2	2.7	CCN(CC(=O)NCC(O)CN1CCN(CC(=O)[O-])CCN(CC(=O)[O-])CCN(CC(=O)[O-])CC1)S(=O)(=O)C(F)(F)C(F)(F)C(F)(F)C(F)(F)C(F)(F)C(F)(F)C(F)(F)C(F)(F)F.[Mn+2].[Na+] (stereo not drawn) [Example 1e, Manganese complex of 10-[2-hydroxy-4-aza-5-oxo-7-aza-7-(perfluorooctylsulfonyl)-nonyl]-1,4,7-tris(carboxymethyl)-1,4,7,10-tetraazacyclododecane (as sodium salt)]	–
49	41	49	41	CCN(CC(=O)NCC(O)CN1CCN(CC(=O)[O-])CCN(CC(=O)[O-])CCN(CC(=O)[O-])CC1)S(=O)(=O)C(F)(F)C(F)(F)C(F)(F)C(F)(F)C(F)(F)C(F)(F)C(F)(F)C(F)(F)F.[Gd+3] (stereo not drawn) [Example 1c, Gadolinium Complex of 10-[2-hydroxy-4-aza-5-oxo-7aza-7-(perfluorooctylsulfonyl)-nonyl]-1,4,7-tris(carboxymethyl)-1,4,7,10-tetraazacyclododecane]	distribution volume in comparison to Dy-DTPA ([4]; i.v.): smaller distribution volume; elimination from the blood in comparison to Dy-DTPA ([4]; i.v.): considerably slower elimination from the blood; distribution volume Vss, MEAN [4]: 0.14 L/kg; elimination half-life Tβ, MEAN [4]: 95.01 min; total clearance CLtot, MEAN [4]: 1.07 mL/min/kg
27.5	15.2	27.5	15.2	O=C([O-])CN1CCN(CC(=O)[O-])CCN(CC(O)COCCC(F)(F)C(F)(F)C(F)(F)C(F)(F)C(F)(F)C(F)(F)C(F)(F)C(F)(F)F)CCN(CC(=O)[O-])CC1.[Gd+3] (stereo not drawn) [Example 3c, Gadolinium complex of 10-[-2hydroxy-4-oxa-1H,1H,2H,3H,3H,5H,5H,6H,6H-perfluorotetradecyl]-1,4,7-tris(carboxymethyl)-1,4,7,10-tetraazacyclododecane]	–
33	19	33	19	O=C([O-])CN1CCN(CC(=O)[O-])CCN(CC(O)CNC(=O)COCCC(F)(F)C(F)(F)C(F)(F)C(F)(F)C(F)(F)C(F)(F)C(F)(F)C(F)(F)F)CCN(CC(=O)[O-])CC1.[Gd+3] (stereo not drawn) [Example 2c, Gadolinium complex of 10-[2-hydroxy-4-aza-5-oxo-7-oxa-10,10,11,11,12,12,13,13,14,14,15,15,16,16,17,17,17-heptadecafluoroheptadecyl]-1,4,7-tris(carboxymethyl)-1,4,7,10-tetraazacyclododecane]	gadolinium concentration in the liver [5]: 0.22 % of the administered dose; gadolinium concentration in the remainder of the body [5]: 1.1 % of the administered dose; signal in the popliteal and inguinal lymph nodes of the injected side vs non-injected side or precontrast image [6]: strong signal rise
